PubChem BioAssay AID2060502 (Molecular Pharmacology Branch, DTP, NCI, 2025)

System: 885724-159-R-J1-PDC complex spheroid viability
Assay: Anticancer human tumor 885724-159-R-J1-PDC patient-derived pancreatic adenocarcinoma cell line growth inhibition [GQUAD]
Conditions: for IC50: curve of first compound; for viability, T/C: stronger effect = lower value
How it was run: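 Tumor cells were grown as complex spheroids with HUVEC endothelial cells and mesenchymal stem cells as stroma. G-quadruplex stabilizers were combined with targeted agents over half-log dilutions from near the clinical Cmax, or from 10 microM.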

[1] = second compound 0.0316 µM, first compound 0.0316 µM
[2] = second compound 0.0316 µM, first compound 0.1 µM
[3] = second compound 0.0316 µM, first compound 0.316 µM
[4] = second compound 0.0316 µM, first compound 1 µM
[5] = second compound 0.0316 µM, first compound 3.16 µM
[6] = second compound 0.0316 µM, first compound 10 µM
[7] = second compound 0.1 µM, first compound 0.0316 µM
[8] = second compound 0.1 µM, first compound 0.1 µM
[9] = second compound 0.1 µM, first compound 0.316 µM
[10] = second compound 0.1 µM, first compound 1 µM
[11] = second compound 0.1 µM, first compound 3.16 µM
[12] = second compound 0.1 µM, first compound 10 µM
[13] = second compound 0.316 µM, first compound 0.0316 µM
[14] = second compound 0.316 µM, first compound 0.1 µM
[15] = second compound 0.316 µM, first compound 0.316 µM
[16] = second compound 0.316 µM, first compound 1 µM
[17] = second compound 0.316 µM, first compound 3.16 µM
[18] = second compound 0.316 µM, first compound 10 µM
[19] = second compound 1 µM, first compound 0.0316 µM
[20] = second compound 1 µM, first compound 0.1 µM
[21] = second compound 1 µM, first compound 0.316 µM
[22] = second compound 1 µM, first compound 1 µM
[23] = second compound 1 µM, first compound 3.16 µM
[24] = second compound 1 µM, first compound 10 µM
[25] = second compound 3.16 µM, first compound 0.0316 µM
[26] = second compound 3.16 µM, first compound 0.1 µM
[27] = second compound 3.16 µM, first compound 0.316 µM
[28] = second compound 3.16 µM, first compound 1 µM
[29] = second compound 3.16 µM, first compound 3.16 µM
[30] = second compound 3.16 µM, first compound 10 µM
[31] = second compound 10 µM, first compound 0.0316 µM
[32] = second compound 10 µM, first compound 0.1 µM
[33] = second compound 10 µM, first compound 0.316 µM
[34] = second compound 10 µM, first compound 1 µM
[35] = second compound 10 µM, first compound 3.16 µM
[36] = second compound 10 µM, first compound 10 µM
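Further: spheroids exposed to agents for seven days before readout.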
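Wherever viability, T/C is given: percent of vehicle control viability where 100% = DMSO wells.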

Work on `COc1cccc2c1C(=O)c1c(O)c3c(c(O)c1C2=O)CC(O)(C(=O)CO)CC3OC1CC(N)C(O)C(C)O1` (stereo not drawn) + CN(C)c1ccc(Nc2c3ccc(NC(=O)CCN4CCCC4)cc3nc3cc(NC(=O)CCN4CCCC4)ccc23)cc1 yielded an IC50 (second compound 0.0316 µM) of 2.17 µM, an IC50 (second compound 0.1 µM) of 2.01 µM and an IC50 (second compound 0.316 µM) of 1.73 µM. For the same compound, the IC50 (second compound 1 µM) was 1.58 µM, the IC50 (second compound 3.16 µM) was 1.62 µM and the IC50 (second compound 10 µM) was 1.11 µM. For the same compound, the viability, T/C [1] was 101%, the viability, T/C [2] was 96.3% and the viability, T/C [3] was 96.2%. For the same compound, the viability, T/C [4] was 73.9%, the viability, T/C [5] was 38.1% and the viability, T/C [6] was 1.56%. It also gave a viability, T/C [7] of 89.4%, a viability, T/C [8] of 95.5% and a viability, T/C [9] of 81%. For the same compound, the viability, T/C [10] was 73.6%, the viability, T/C [11] was 35.4% and the viability, T/C [12] was 2.82%. For the same compound, the viability, T/C [13] was 88.6%, the viability, T/C [14] was 87.8% and the viability, T/C [15] was 80.7%. For the same compound, the viability, T/C [16] was 55.3%, the viability, T/C [17] was 40.5% and the viability, T/C [18] was 1.92%. The viability, T/C [19] was 81.1%, the viability, T/C [20] was 75% and the viability, T/C [21] was 68.6%. For the same compound, the viability, T/C [22] was 57%, the viability, T/C [23] was 39.8% and the viability, T/C [24] was 1.53%. It also gave a viability, T/C [25] of 83.8%, a viability, T/C [26] of 71% and a viability, T/C [27] of 78.7%. The viability, T/C [28] was 59.2%, the viability, T/C [29] was 35.1% and the viability, T/C [30] was 1.32%. It also gave a viability, T/C [31] of 74.2%, a viability, T/C [32] of 79.7% and a viability, T/C [33] of 59.1%. For the same compound, the viability, T/C [34] was 52.5%, the viability, T/C [35] was 32.7% and the viability, T/C [36] was 1.06%.

With `CC(C)(O)C1CCC(Nc2ccc3ncc(-c4cccc(C(F)(F)F)c4)n3n2)CC1` (stereo not drawn) + Cc1cnc(CNC(=O)c2c(=O)c3ccc(N4CCCN(C)CC4)nc3n3c2sc2ccccc23)cn1 the IC50 (second compound 0.0316 µM) was 3.14 µM, the IC50 (second compound 0.1 µM) was 4.18 µM and the IC50 (second compound 0.316 µM) was 3.88 µM. For the same compound, the IC50 (second compound 1 µM) was 2.61 µM, the IC50 (second compound 3.16 µM) was 1.19 µM and the IC50 (second compound 10 µM) was 1.04 µM. For the same compound, the viability, T/C [1] was 112%, the viability, T/C [2] was 86.4% and the viability, T/C [3] was 93.2%. It also gave a viability, T/C [4] of 70.3%, a viability, T/C [5] of 44.2% and a viability, T/C [6] of 40.6%. The viability, T/C [7] was 108%, the viability, T/C [8] was 103% and the viability, T/C [9] was 91.2%. For the same compound, the viability, T/C [10] was 79.1%, the viability, T/C [11] was 45.5% and the viability, T/C [12] was 48.1%. For the same compound, the viability, T/C [13] was 94%, the viability, T/C [14] was 89.9% and the viability, T/C [15] was 79.4%. For the same compound, the viability, T/C [16] was 71.1%, the viability, T/C [17] was 50.4% and the viability, T/C [18] was 39.9%. The viability, T/C [19] was 88.5%, the viability, T/C [20] was 73.2% and the viability, T/C [21] was 77.2%. It also gave a viability, T/C [22] of 67%, a viability, T/C [23] of 45.2% and a viability, T/C [24] of 36.7%. The viability, T/C [25] was 73.8%, the viability, T/C [26] was 65.6% and the viability, T/C [27] was 64.9%. It also gave a viability, T/C [28] of 55%, a viability, T/C [29] of 28.4% and a viability, T/C [30] of 11.7%. For the same compound, the viability, T/C [31] was 62%, the viability, T/C [32] was 69.4% and the viability, T/C [33] was 62.5%. It also gave a viability, T/C [34] of 51.8%, a viability, T/C [35] of 9.65% and a viability, T/C [36] of 0.29%.

For `COc1ncnc(C2CC2)c1-c1ncc2cnn(Cc3ccc(-c4nc(C(F)(F)F)cn4C(C)C)cc3)c2n1` + CN(C)c1ccc(Nc2c3ccc(NC(=O)CCN4CCCC4)cc3nc3cc(NC(=O)CCN4CCCC4)ccc23)cc1, the IC50 (second compound 0.0316 µM) was over 10 µM, the IC50 (second compound 0.1 µM) was over 10 µM and the IC50 (second compound 0.316 µM) was over 10 µM. For the same compound, the IC50 (second compound 1 µM) was over 10 µM, the IC50 (second compound 3.16 µM) was over 10 µM and the IC50 (second compound 10 µM) was over 10 µM. For the same compound, the viability, T/C [1] was 96.8%, the viability, T/C [2] was 101% and the viability, T/C [3] was 85.6%. For the same compound, the viability, T/C [4] was 86.9%, the viability, T/C [5] was 81.4% and the viability, T/C [6] was 105%. The viability, T/C [7] was 103%, the viability, T/C [8] was 88.2% and the viability, T/C [9] was 96.9%. It also gave a viability, T/C [10] of 98%, a viability, T/C [11] of 95% and a viability, T/C [12] of 94.5%. It also gave a viability, T/C [13] of 97.6%, a viability, T/C [14] of 86.1% and a viability, T/C [15] of 82.3%. For the same compound, the viability, T/C [16] was 80.1%, the viability, T/C [17] was 101% and the viability, T/C [18] was 95.7%. For the same compound, the viability, T/C [19] was 77.5%, the viability, T/C [20] was 70.4% and the viability, T/C [21] was 81.1%. For the same compound, the viability, T/C [22] was 67.7%, the viability, T/C [23] was 79.3% and the viability, T/C [24] was 83.1%. For the same compound, the viability, T/C [25] was 79.2%, the viability, T/C [26] was 76.7% and the viability, T/C [27] was 68.8%. It also gave a viability, T/C [28] of 58%, a viability, T/C [29] of 77.4% and a viability, T/C [30] of 78.1%. For the same compound, the viability, T/C [31] was 61.3%, the viability, T/C [32] was 66.5% and the viability, T/C [33] was 73.5%. The viability, T/C [34] was 70.5%, the viability, T/C [35] was 63.1% and the viability, T/C [36] was 47.8%.

In the case of `Cc1[nH]c2ccccc2c1CCNCc1ccc(/C=C/C(=O)NO)cc1` + CN(C)c1ccc(Nc2c3ccc(NC(=O)CCN4CCCC4)cc3nc3cc(NC(=O)CCN4CCCC4)ccc23)cc1, the IC50 (second compound 0.0316 µM) is reported as over 0.316 µM, the IC50 (second compound 0.1 µM) is reported as over 0.316 µM and the IC50 (second compound 0.316 µM) is reported as 0.286 µM. The IC50 (second compound 1 µM) was 0.214 µM, the IC50 (second compound 3.16 µM) was 0.0929 µM and the IC50 (second compound 10 µM) was 0.152 µM. It also gave a viability, T/C (second compound 0.0316 µM, first compound 0.000999 µM) of 103%, a viability, T/C (second compound 0.0316 µM, first compound 0.00316 µM) of 98.3% and a viability, T/C (second compound 0.0316 µM, first compound 0.00999 µM) of 93.1%. It also gave a viability, T/C [1] of 96.9%, a viability, T/C (second compound 0.0316 µM, first compound 0.0999 µM) of 124% and a viability, T/C [3] of 60.1%. The viability, T/C (second compound 0.1 µM, first compound 0.000999 µM) was 99.8%, the viability, T/C (second compound 0.1 µM, first compound 0.00316 µM) was 91.7% and the viability, T/C (second compound 0.1 µM, first compound 0.00999 µM) was 95%. For the same compound, the viability, T/C [7] was 125%, the viability, T/C (second compound 0.1 µM, first compound 0.0999 µM) was 105% and the viability, T/C [9] was 54.1%. It also gave a viability, T/C (second compound 0.316 µM, first compound 0.000999 µM) of 84.7%, a viability, T/C (second compound 0.316 µM, first compound 0.00316 µM) of 94% and a viability, T/C (second compound 0.316 µM, first compound 0.00999 µM) of 95.3%. It also gave a viability, T/C [13] of 84.6%, a viability, T/C (second compound 0.316 µM, first compound 0.0999 µM) of 112% and a viability, T/C [15] of 45.7%. The viability, T/C (second compound 1 µM, first compound 0.000999 µM) was 90.3%, the viability, T/C (second compound 1 µM, first compound 0.00316 µM) was 75.6% and the viability, T/C (second compound 1 µM, first compound 0.00999 µM) was 75.5%. It also gave a viability, T/C [19] of 77.5%, a viability, T/C (second compound 1 µM, first compound 0.0999 µM) of 69.8% and a viability, T/C [21] of 40.3%. For the same compound, the viability, T/C (second compound 3.16 µM, first compound 0.000999 µM) was 65.2%, the viability, T/C (second compound 3.16 µM, first compound 0.00316 µM) was 81.4% and the viability, T/C (second compound 3.16 µM, first compound 0.00999 µM) was 82.1%. For the same compound, the viability, T/C [25] was 73.1%, the viability, T/C (second compound 3.16 µM, first compound 0.0999 µM) was 48.5% and the viability, T/C [27] was 40.1%. For the same compound, the viability, T/C (second compound 10 µM, first compound 0.000999 µM) was 65%, the viability, T/C (second compound 10 µM, first compound 0.00316 µM) was 58.3% and the viability, T/C (second compound 10 µM, first compound 0.00999 µM) was 59.6%. For the same compound, the viability, T/C [31] was 55.6%, the viability, T/C (second compound 10 µM, first compound 0.0999 µM) was 69.3% and the viability, T/C [33] was 30%.
